Among the data in US9717678B2, “Delivery systems for improving oral bioavailability of Fenobam, its hydrates, and salts” (MURTY PHARMACEUTICALS, INC., priority 2011, dated 2017) are Solubility values, retold here.

The structures appear in SMILES notation. ≈ marks a conversion by molar mass, not a printed value.

The series is described as follows: Equilibrium solubility by HPLC. The format is physicochemical.
The mark [1] stands for this setting: comparative equilibrium solubility (Table 2), solvent 0.1 N HCl.
The mark [2] stands for this setting: comparative equilibrium solubility (Table 2), solvent PEG 400.
The mark [3] stands for this setting: comparative equilibrium solubility (Table 2), solvent Phosphate Buffer, pH 7.4.

`CN1CC(=O)N/C1=N\C(=O)Nc1cccc(Cl)c1.O` [Fenobam Monohydrate] returned a Solubility under setting [1] of 308 µg/mL, a Solubility under setting [2] of 34500 µg/mL and a Solubility under setting [3] of 39 µg/mL.

Turning to `CN1CC(=O)N=C1NC(=O)Nc1cccc(Cl)c1.O=S(=O)(O)O` [Fenobam Sulfate], the Solubility amounted to 303 µg/mL under setting [1], 5650 µg/mL under setting [2] and 27 µg/mL under setting [3].

Turning to `CN1CC(=O)NC1=NC(=O)Nc1cccc(Cl)c1` [Fenobam], the Solubility reads like this: under setting [1], 392 µg/mL (≈ 1470 µM); under setting [2], 24400 µg/mL (≈ 91500 µM); under setting [3], 33 µg/mL (≈ 124 µM); (equilibrium solubility, solvent 0.1 N HCl) 392 µg/mL (≈ 1470 µM); (equilibrium solubility, solvent 10% Cremophor RH 40) 643 µg/mL (≈ 2410 µM); (equilibrium solubility, solvent 10% Polysorbate 80) 1190 µg/mL (≈ 4460 µM). For the same molecule, the Solubility is, setting by setting: (equilibrium solubility, solvent 20% Polyethylene Glycol (PEG) 400) 124 µg/mL (≈ 465 µM); (equilibrium solubility, solvent 20% Propylene Glycol) 65 µg/mL (≈ 244 µM); (equilibrium solubility, solvent 30% HP-Beta-Cyclodextrin) 2190 µg/mL (≈ 8210 µM); (equilibrium solubility, solvent Acetate Buffer, pH 4.0) 25 µg/mL (≈ 93.7 µM); (equilibrium solubility, solvent Ethanol) 2900 µg/mL (≈ 10900 µM); (equilibrium solubility, solvent Phosphate Buffer, pH 7.4) 33 µg/mL (≈ 124 µM). The Solubility reads like this: (equilibrium solubility, solvent Polyethylene Glycol (PEG) 400) 24400 µg/mL (≈ 91500 µM); (equilibrium solubility, solvent Propylene Glycol) 4460 µg/mL (≈ 16700 µM).
